Holding throughout (type): cell-based
Assay [1] deals with T1, serotonin transporter (SERT) (Homo sapiens, UniProt P31645).
T1 construct: expressed in transfected cells; host or cells: HEK-293
The experiment in a line: Serotonin reuptake inhibition, [3H]-5-HT, HEK-293 cells transfected with 5-HT transporter cDNA. The following applies: compound 1 μM; [3H]-5-HT; relative to control without compound = 100%; lower value = more inhibition. The method, boiled down: (§1)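 HEK-293 cells transfected with SERT or NET cDNA were preincubated with compounds in uptake buffer for 15 min at 37 °C, then given [3H]-5-HT or [3H]-NE for 5 min at 37 °C. After ice-cold washes and 1% SDS lysis, retained radioactivity was expressed relative to the untreated control (100%). Screening was at 1 μM; IC50 came from six concentrations (1 nM–1 μM).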

Assay [2] has as its target T2, norepinephrine transporter (NET) (Homo sapiens, UniProt P23975).
T2 construct: expressed in transfected cells; host or cells: HEK-293
Description: Norepinephrine reuptake inhibition, [3H]-NE, HEK-293 cells transfected with NE transporter cDNA. The following applies: compound 1 μM; [3H]-NE; relative to control without compound = 100%; lower value = more inhibition. An outline of the steps: as §1

The target of assay [3] is T3, dopamine transporter (DAT) (Homo sapiens, UniProt Q01959).
T3 construct: expressed in transfected cells; host or cells: HEK-293
T3 sequence (Q01959 whole entry, species assumed): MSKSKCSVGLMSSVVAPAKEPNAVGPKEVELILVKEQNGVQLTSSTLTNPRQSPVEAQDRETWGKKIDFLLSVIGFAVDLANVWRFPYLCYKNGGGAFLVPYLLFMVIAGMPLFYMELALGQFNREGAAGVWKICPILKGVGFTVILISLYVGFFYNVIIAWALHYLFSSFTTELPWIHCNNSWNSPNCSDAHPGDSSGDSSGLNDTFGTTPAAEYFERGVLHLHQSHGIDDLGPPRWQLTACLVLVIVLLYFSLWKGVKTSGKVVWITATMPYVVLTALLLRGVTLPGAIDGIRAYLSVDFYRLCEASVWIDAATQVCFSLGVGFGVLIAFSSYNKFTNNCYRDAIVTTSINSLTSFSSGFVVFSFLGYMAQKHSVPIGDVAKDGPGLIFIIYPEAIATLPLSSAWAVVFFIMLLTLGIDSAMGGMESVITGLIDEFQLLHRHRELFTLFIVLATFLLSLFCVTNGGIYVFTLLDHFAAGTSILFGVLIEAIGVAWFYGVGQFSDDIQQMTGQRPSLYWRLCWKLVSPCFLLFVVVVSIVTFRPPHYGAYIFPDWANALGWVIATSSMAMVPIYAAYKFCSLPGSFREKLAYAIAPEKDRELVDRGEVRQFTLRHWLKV
Description: Dopamine reuptake inhibition, [3H]-DA, HEK-293 cells transfected with dopamine transporter cDNA. The following applies: for Triple reuptake inhibition (Ratio %) DAT: compound 1 μM, 20-30 nM [3H]-DA, relative to control without compound = 100%, lower value = more inhibition. An outline of the steps:
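Transfected cells were preincubated with compound (1 μM screen) for 15 min at 37 °C, then given 20-30 nM tracer for 5 min at 37 °C, washed ice-cold and lysed in 1% SDS for radioactivity counting. Uptake was expressed as % of untreated control, and IC50 came from six concentrations, 1 nM to 1 μM.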

T2 sequence (P23975 whole entry, species assumed): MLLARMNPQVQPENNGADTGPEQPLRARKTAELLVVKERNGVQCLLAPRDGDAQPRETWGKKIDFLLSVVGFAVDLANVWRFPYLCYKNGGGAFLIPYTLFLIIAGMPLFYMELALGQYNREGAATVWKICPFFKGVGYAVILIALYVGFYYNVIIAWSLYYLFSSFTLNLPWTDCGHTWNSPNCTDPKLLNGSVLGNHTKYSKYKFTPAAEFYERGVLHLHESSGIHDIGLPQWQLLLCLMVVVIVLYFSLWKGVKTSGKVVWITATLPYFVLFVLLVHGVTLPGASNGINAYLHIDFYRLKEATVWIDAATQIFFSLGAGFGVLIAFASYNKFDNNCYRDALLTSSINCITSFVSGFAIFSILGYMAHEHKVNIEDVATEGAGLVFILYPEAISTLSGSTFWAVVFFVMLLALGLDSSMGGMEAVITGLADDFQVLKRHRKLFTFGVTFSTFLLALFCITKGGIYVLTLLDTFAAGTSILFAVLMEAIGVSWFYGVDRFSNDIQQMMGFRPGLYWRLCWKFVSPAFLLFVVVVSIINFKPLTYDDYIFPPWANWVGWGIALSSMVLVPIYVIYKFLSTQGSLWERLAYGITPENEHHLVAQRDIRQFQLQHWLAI
T1 sequence (P31645 whole entry, species assumed): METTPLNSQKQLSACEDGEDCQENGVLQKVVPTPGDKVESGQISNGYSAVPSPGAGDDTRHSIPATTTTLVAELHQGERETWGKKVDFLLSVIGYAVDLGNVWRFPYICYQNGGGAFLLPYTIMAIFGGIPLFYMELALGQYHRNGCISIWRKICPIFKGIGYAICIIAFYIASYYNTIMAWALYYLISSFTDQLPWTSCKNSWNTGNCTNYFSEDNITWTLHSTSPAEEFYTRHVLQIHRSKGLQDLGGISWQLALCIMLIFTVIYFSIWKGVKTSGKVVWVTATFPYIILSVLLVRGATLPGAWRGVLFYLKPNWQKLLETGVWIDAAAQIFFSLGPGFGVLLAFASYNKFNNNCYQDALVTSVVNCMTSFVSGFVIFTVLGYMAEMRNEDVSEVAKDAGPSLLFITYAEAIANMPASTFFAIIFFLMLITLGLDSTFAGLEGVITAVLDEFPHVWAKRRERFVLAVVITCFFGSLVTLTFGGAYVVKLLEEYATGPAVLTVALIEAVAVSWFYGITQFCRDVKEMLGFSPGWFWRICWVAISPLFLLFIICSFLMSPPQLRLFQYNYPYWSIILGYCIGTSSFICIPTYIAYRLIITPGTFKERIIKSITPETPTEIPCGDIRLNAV

On to `O=S(=O)(NCCN1CCN(Cc2ccccc2)CC1)c1ccc2ccccc2c1` [Example 46, N-(2-(4-benzylpiperazin-1-yl)ethyl)naphthalen-2-sulfonamide], for which, in assay [1], the “Triple reuptake inhibition (Ratio %) SERT” value is on record as 49.64%. Further, in assay [2], the “Triple reuptake inhibition (Ratio %) NET” value is reported as 87.27%. For the same compound, the “Triple reuptake inhibition (Ratio %) DAT” value in assay [3] is 83.08%.

Take `CCCCOc1ccc(S(=O)(=O)NCCN2CCC(c3c[nH]c4ccc(C)cc34)CC2)cc1` [Example 7, 4-butoxy-N-(2-(4-(5-methyl-1H-indol-3-yl)piperidin-1-yl)ethyl)benzenesulfonamide]: in assay [1], the “Triple reuptake inhibition (Ratio %) SERT” value was 93.29%. Moreover, the “Triple reuptake inhibition (Ratio %) NET” value in assay [2] was determined as 88.38%. In addition, the “Triple reuptake inhibition (Ratio %) DAT” value in assay [3] is 99.63%.

For orientation: IC50 means the concentration needed to halve the response being measured. Regarding `O=S(=O)(NCCN1CCC(Cc2ccccc2)CC1)c1cccc2ccccc12` [Example 39, N-(2-(4-benzylpiperidin-1-yl)ethyl)naphthalen-1-sulfonamide], in assay [1], the “Triple reuptake inhibition (Ratio %) SERT” value is 15.77%. For the same compound, the “Triple reuptake inhibition (Ratio %) NET” value in assay [2] worked out at 18.46%. The “Triple reuptake inhibition (Ratio %) DAT” value in assay [3] is recorded as 31.26%. For the same compound, in assay [3] (concentration at which Ratio % is 50%, 6 concentrations 1 nM to 1 μM, read-out: Triple reuptake inhibition (IC50, μM) DAT), the IC50 came to 1.16 µM.

For the compound `O=S(=O)(NCCCN1CCN(Cc2ccccc2)CC1)c1cccc2ccccc12` [Example 67], the “Triple reuptake inhibition (Ratio %) SERT” value in assay [1] came out at 49.64%. In addition, the “Triple reuptake inhibition (Ratio %) NET” value in assay [2] is 87.27%. For the same compound, in assay [3], the “Triple reuptake inhibition (Ratio %) DAT” value is 83.08%.

As to `CCCCOc1ccc(S(=O)(=O)NCCCN2CCC(Cc3ccccc3)CC2)nc1` [Example 35, N-(3-(4-benzylpiperidinyl)propyl)-5-butoxypyridin-2-sulfonamide], in assay [1], the “Triple reuptake inhibition (Ratio %) SERT” value was 53.08%. For the same compound, the “Triple reuptake inhibition (Ratio %) NET” value in assay [2] is 51.99%. Besides, the “Triple reuptake inhibition (Ratio %) DAT” value in assay [3] is recorded as 16.12%.

For the compound `O=S(=O)(NCCN1CCC(Cc2ccccc2)CC1)c1ccc(F)cc1` [Example 2, N-(2-(4-benzylpiperidin-1-yl)ethyl)-4-fluorobenzenesulfonamide], the “Triple reuptake inhibition (Ratio %) SERT” value in assay [1] came out at 100.21%. In assay [2], the “Triple reuptake inhibition (Ratio %) NET” value is recorded as 61.32%. In addition, in assay [3], the “Triple reuptake inhibition (Ratio %) DAT” value is on record as 73.55%.

`CCCCOc1ccc(S(=O)(=O)NCCCN2CCN(c3cccc(Cl)c3Cl)CC2)cc1` [Example 24, 4-butoxy-N-(3-(4-(2,3-dichlorophenyl)piperazin-1-yl)propyl)benzenesulfonamide]: the “Triple reuptake inhibition (Ratio %) SERT” value in assay [1] is listed as 60.27%. Moreover, the “Triple reuptake inhibition (Ratio %) NET” value in assay [2] was found to be 58.70%. For the same compound, in assay [3], the “Triple reuptake inhibition (Ratio %) DAT” value was 99.30%.

As to `CCCCOc1ccc(S(=O)(=O)NCCN2CCC(Cc3ccc(Cl)c(Cl)c3)CC2)cc1` [Example 4, 4-butoxy-N-(2-(4-(3,4-dichlorobenzyl)piperidin-1-yl)ethyl)benzenesulfonamide], the “Triple reuptake inhibition (Ratio %) SERT” value in assay [1] turned out to be 76.57%. Moreover, the “Triple reuptake inhibition (Ratio %) NET” value in assay [2] is recorded as 80.47%. Also, the “Triple reuptake inhibition (Ratio %) DAT” value in assay [3] is recorded as 88.71%.

In the case of `Cc1ccc(-c2ccc(S(=O)(=O)NCCCN3CCC(Cc4ccccc4)CC3)cc2)cc1` [Example 60, N-(3-(4-benzylpiperidin-1-yl)propyl)-4′-methyl-[1,1′-biphenyl]-4-sulfonamide], the “Triple reuptake inhibition (Ratio %) SERT” value in assay [1] turned out to be 17.76%. Also, the “Triple reuptake inhibition (Ratio %) NET” value in assay [2] turned out to be 44.79%. Further, the “Triple reuptake inhibition (Ratio %) DAT” value in assay [3] is recorded as 9.15%.

As for `O=S(=O)(NCCN1CCN(c2ccc(Cl)cc2)CC1)c1cccc2ccccc12` [Example 51, N-(2-(4-(4-chlorophenyl)piperazinyl)ethyl)naphthalen-1-sulfonamide], in assay [1], the “Triple reuptake inhibition (Ratio %) SERT” value is 47.19%. Further, the “Triple reuptake inhibition (Ratio %) NET” value in assay [2] amounted to 64.45%. Besides, the “Triple reuptake inhibition (Ratio %) DAT” value in assay [3] is 68.53%.

With “N-(3-(4-benzylpiperidin-1-yl)propyl)-4-butoxybenzenesulfineamide [Example 19]”, the “Triple reuptake inhibition (Ratio %) SERT” value in assay [1] is listed as 67.86%. For the same compound, in assay [2], the “Triple reuptake inhibition (Ratio %) NET” value is listed as 64.78%. Moreover, the “Triple reuptake inhibition (Ratio %) DAT” value in assay [3] is 57.52%.

(Values after patent publication US20230212121A1 (DAEGU-GYEONGBUK MEDICAL INNOVATION FOUNDATION, priority 2020, published 2023).)
